The test system of data set [1] is canonical Wnt-β-catenin cellular messaging system (16xTCF-TK-FireFly-Luci reporter, Wnt3a and Dkk1 co-transfected U2OS cells). Description: Functional Dkk1-LRP5-TCF-Luciferase Assay in U2OS Cells (table columns: A=MAX FOLD Induction/DMSO CONTROL; B=fold induction @ 2.0 uM; C=fold induction @ 20.0 uM). Type of data set: cell-based, Human. As to conditions: maximum fold induction over DMSO control. The procedure, abridged: (§1)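 U2OS cells co-transfected with 16×TCF-TK-firefly luciferase, TK-Renilla control, Wnt3a and Dkk1, then frozen; thawed cells (~5,000/well, ~5% FBS, phenol red-free RPMI) incubated ~20 h at 37° C. with compound (0.25% DMSO). Firefly luminescence (Bright-Glo) normalized to DMSO mean as fold induction.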

Assay in data set [2]: as above
Type of data set: cell-based, Human. Particulars: Homo sapiens; for fold induction at 2 µM / fold induction at 20 µM: U2OS; for fold induction at 2 µM: 2.0 uM compound; for fold induction at 20 µM: 20.0 uM compound. The procedure, abridged: as §1

The term EC50 denotes the concentration giving half of the maximal effect. Usually fold induction stands for the ratio of treated to control signal.

On to `c1ccc2cc(-c3cnc4c(c3)nc(-c3ccc5c(c3)OCO5)n4C3CCNCC3)ccc2c1` [2-(1,3-benzodioxol-5-yl)-6-(2-naphthyl)-3-piperidin-4-yl-3H-imidazo[4,5-b]pyridine], for which the “A = MAX FOLD Induction/DMSO CONTROL” value in data set [1] amounted to 1.860. Also, the response in data set [2] (U2OS cells, TCF-luciferase reporter) was half-maximal at 0.737 µM (EC50).

Consider `Cn1ccnc1-c1nc2cc(-c3ccc4ccccc4c3)cnc2n1C1CCNCC1` [2-(1-methyl-1H-imidazol-2-yl)-6-(2-naphthyl)-3-piperidin-4-yl-3H-imidazo[4,5-b]pyridine], for which the “A = MAX FOLD Induction/DMSO CONTROL” value in data set [1] is listed as 2.720.

On to `Cn1cccc1-c1nc2cc(-c3ccc4ccccc4c3)cnc2n1C1CCNCC1` [2-(1-methyl-1H-pyrrol-2-yl)-6-(2-naphthyl)-3-piperidin-4-yl-3H-imidazo[4,5-b]pyridine], for which the “A = MAX FOLD Induction/DMSO CONTROL” value in data set [1] came to 2.470.

With `c1ccc2cc(-c3cnc4c(c3)nc(-c3ccc5c(c3)OCCO5)n4C3CCNCC3)ccc2c1` [2-(2,3-dihydro-1,4-benzodioxin-6-yl)-6-(2-naphthyl)-3-piperidin-4-yl-3H-imidazo[4,5-b]pyridine], the “A = MAX FOLD Induction/DMSO CONTROL” value in data set [1] is 1.460.

In the case of `COc1ncccc1-c1nc2cc(-c3ccc4ccccc4c3)cnc2n1C1CCNCC1` [2-(2-methoxypyridin-3-yl)-6-(2-naphthyl)-3-piperidin-4-yl-3H-imidazo[4,5-b]pyridine], the “A = MAX FOLD Induction/DMSO CONTROL” value in data set [1] is 2.030. In addition, in data set [2], the fold induction at 2 µM was found to be 2.06 and the fold induction at 20 µM was found to be 0.02.

Regarding `Clc1ccc(-c2nc3cc(-c4ccc5ccccc5c4)cnc3n2C2CCNCC2)cc1` [2-(4-chlorophenyl)-6-(2-naphthyl)-3-piperidin-4-yl-3H-imidazo[4,5-b]pyridine], the “A = MAX FOLD Induction/DMSO CONTROL” value in data set [1] is reported as 1.160.

Consider `Fc1ccc(-c2nc3c(-c4ccc5ccccc5c4)ccnc3n2C2CCNCC2)cc1` [2-(4-fluorophenyl)-7-(2-naphthyl)-3-piperidin-4-yl-3H-imidazo[4,5-b]pyridine], for which the “A = MAX FOLD Induction/DMSO CONTROL” value in data set [1] came to 1.370. The fold induction at 2 µM in data set [2] was 2.07.

Turning to `COc1ccc(-c2nc3cc(-c4ccc5ccccc5c4)cnc3n2C2CCNCC2)cc1` [2-(4-methoxyphenyl)-6-(2-naphthyl)-3-piperidin-4-yl-3H-imidazo[4,5-b]pyridine], in data set [1], the “A = MAX FOLD Induction/DMSO CONTROL” value amounted to 1.350.

Turning to `Cc1nc[nH]c1-c1nc2cc(-c3ccc4ccccc4c3)cnc2n1C1CCNCC1` [2-(4-methyl-1H-imidazol-5-yl)-6-(2-naphthyl)-3-piperidin-4-yl-3H-imidazo[4,5-b]pyridine], the “A = MAX FOLD Induction/DMSO CONTROL” value in data set [1] is given as 1.870.

`Oc1ccccc1-c1nc2cc(-c3ccc4ccccc4c3)cnc2n1C1CCNCC1` [2-[6-(2-naphthyl)-3-piperidin-4-yl-3H-imidazo[4,5-b]pyridin-2-yl]phenol]: the “A = MAX FOLD Induction/DMSO CONTROL” value in data set [1] was 1.380.

Turning to `Oc1cccc(-c2nc3cc(-c4ccc5ccccc5c4)cnc3n2C2CCNCC2)c1O` [3-[6-(2-naphthyl)-3-piperidin-4-yl-3H-imidazo[4,5-b]pyridin-2-yl]benzene-1,2-diol], the “A = MAX FOLD Induction/DMSO CONTROL” value in data set [1] is 1.430.

Turning to `Oc1ccc(-c2nc3cc(-c4ccc5ccccc5c4)cnc3n2C2CCNCC2)cc1` [4-[6-(2-naphthyl)-3-piperidin-4-yl-3H-imidazo[4,5-b]pyridin-2-yl]phenol], the “A = MAX FOLD Induction/DMSO CONTROL” value in data set [1] turned out to be 1.710.

As to `C=Cc1cccc(-c2nc3cc(-c4ccc5ccccc5c4)cnc3n2C2CCNCC2)c1` [6-(2-naphthyl)-3-piperidin-4-yl-2-(3-vinylphenyl)-3H-imidazo[4,5-b]pyridine], in data set [1], the “A = MAX FOLD Induction/DMSO CONTROL” value stood at 1.290.

Turning to `FC(F)(F)c1ccccc1-c1nc2cc(-c3ccc4ccccc4c3)cnc2n1C1CCNCC1` [6-(2-naphthyl)-3-piperidin-4-yl-2-[2-(trifluoromethyl)phenyl]-3H-imidazo[4,5-b]pyridine], the “A = MAX FOLD Induction/DMSO CONTROL” value in data set [1] is recorded as 1.360.

Regarding `FC(F)(F)Oc1ccccc1-c1nc2c(-c3ccc4ccccc4c3)ccnc2n1C1CCNCC1` [7-(2-naphthyl)-3-piperidin-4-yl-2-[2-(trifluoromethoxy)phenyl]-3H-imidazo[4,5-b]pyridine], the fold induction at 2 µM in data set [2] was 1.88.

Regarding `FC(F)(F)c1ccccc1-c1nc2c(-c3ccc4ccccc4c3)ccnc2n1C1CCNCC1` [7-(2-naphthyl)-3-piperidin-4-yl-2-[2-(trifluoromethyl)phenyl]-3H-imidazo[4,5-b]pyridine], the fold induction at 2 µM in data set [2] was determined as 1.72.

As to `FC(F)(F)Oc1cccc(-c2nc3c(-c4ccc5ccccc5c4)ccnc3n2C2CCNCC2)c1` [7-(2-naphthyl)-3-piperidin-4-yl-2-[3-(trifluoromethoxy)phenyl]-3H-imidazo[4,5-b]pyridine], the fold induction at 2 µM in data set [2] came to 1.52.

Turning to `FC(F)(F)c1cccc(-c2nc3c(-c4ccc5ccccc5c4)ccnc3n2C2CCNCC2)c1` [7-(2-naphthyl)-3-piperidin-4-yl-2-[3-(trifluoromethyl)phenyl]-3H-imidazo[4,5-b]pyridine], the fold induction at 2 µM in data set [2] is 1.54.

Turning to `FC(F)(F)Oc1ccc(-c2nc3c(-c4ccc5ccccc5c4)ccnc3n2C2CCNCC2)cc1` [7-(2-naphthyl)-3-piperidin-4-yl-2-[4-(trifluoromethoxy)phenyl]-3H-imidazo[4,5-b]pyridine], the fold induction at 2 µM in data set [2] was 1.51.

With `FC(F)(F)c1ccc(-c2nc3c(-c4ccc5ccccc5c4)ccnc3n2C2CCNCC2)cc1` [7-(2-naphthyl)-3-piperidin-4-yl-2-[4-(trifluoromethyl)phenyl]-3H-imidazo[4,5-b]pyridine], in data set [2], the fold induction at 2 µM is 1.28.

`CCCc1nc2c(-c3ccc4ccccc4c3)ccnc2n1C1CCNCC1` [7-(2-naphthyl)-3-piperidin-4-yl-2-propyl-3H-imidazo[4,5-b]pyridine]: in data set [2], the fold induction at 2 µM was 1.93.

`c1ccc(-c2nc3c(-c4ccc5ccccc5c4)ccnc3n2C2CCNCC2)nc1` [7-(2-naphthyl)-3-piperidin-4-yl-2-pyridin-2-yl-3H-imidazo[4,5-b]pyridine]: in data set [2], the fold induction at 2 µM amounted to 1.12 and the fold induction at 20 µM turned out to be 0.02.

As to `c1cncc(-c2nc3c(-c4ccc5ccccc5c4)ccnc3n2C2CCNCC2)c1` [7-(2-naphthyl)-3-piperidin-4-yl-2-pyridin-3-yl-3H-imidazo[4,5-b]pyridine], the fold induction at 2 µM in data set [2] stood at 1.21.

As to `FC(F)(F)c1cccc(Oc2cccc(-c3nc4c(-c5ccc6ccccc6c5)ccnc4n3C3CCNCC3)c2)c1` [7-(2-naphthyl)-3-piperidin-4-yl-2-{3-[3-(trifluoromethyl)phenoxy]phenyl}-3H-imidazo[4,5-b]pyridine], in data set [2], the fold induction at 2 µM is 1.29.

Turning to `c1ccc2cc(-c3cnc4c(c3)nc(-c3cccc5cccnc35)n4C3CCNCC3)ccc2c1` [8-[6-(2-naphthyl)-3-piperidin-4-yl-3H-imidazo[4,5-b]pyridin-2-yl]quinoline], the fold induction at 2 µM in data set [2] is 1.61.

With `c1ccc2cc(-c3ccnc4c3nc(-c3cccc5cccnc35)n4C3CCNCC3)ccc2c1` [8-[7-(2-naphthyl)-3-piperidin-4-yl-3H-imidazo[4,5-b]pyridin-2-yl]quinoline], the fold induction at 20 µM in data set [2] came to 1.01.

On to `CN(C)C(=O)N1CCC(n2c(=O)n(C)c3c(-c4ccc5ccccc5c4)ccnc32)CC1` [N,N-dimethyl-4-[1-methyl-7-(2-naphthyl)-2-oxo-1,2-dihydro-3H-imidazo[4,5-b]pyridin-3-yl]piperidine-1-carboxamide], for which, in data set [2], the fold induction at 2 µM is 1.19 and the fold induction at 20 µM was found to be 0.35.

For the compound `CN(C)S(=O)(=O)N1CCC(n2cnc3c(-c4ccc5ccccc5c4)ccnc32)CC1` [N,N-dimethyl-4-[7-(2-naphthyl)-3H-imidazo[4,5-b]pyridin-3-yl]piperidine-1-sulfonamide], in data set [2], the fold induction at 2 µM worked out at 1.19 and the fold induction at 20 µM was 1.46.

With `O=C(NC1CCCCC1)N1CCC(n2cnc3c(-c4ccc5ccccc5c4)ccnc32)CC1` [N-cyclohexyl-4-[7-(2-naphthyl)-3H-imidazo[4,5-b]pyridin-3-yl]piperidine-1-carboxamide], in data set [2], the fold induction at 2 µM is 0.97 and the fold induction at 20 µM was found to be 0.03.

Take `CCNC(=O)N1CCC(n2cnc3c(-c4ccc5ccccc5c4)ccnc32)CC1` [N-ethyl-4-[7-(2-naphthyl)-3H-imidazo[4,5-b]pyridin-3-yl]piperidine-1-carboxamide]: in data set [2], the fold induction at 2 µM was 1.52 and the fold induction at 20 µM amounted to 1.29.

As to `CC(C)NC(=O)N1CCC(n2c(=O)n(C)c3c(-c4ccc5ccccc5c4)ccnc32)CC1` [N-isopropyl-4-[1-methyl-7-(2-naphthyl)-2-oxo-1,2-dihydro-3H-imidazo[4,5-b]pyridin-3-yl]piperidine-1-carboxamide], in data set [2], the fold induction at 2 µM turned out to be 1.07 and the fold induction at 20 µM amounted to 0.26.

In the case of `CC(C)NC(=O)N1CCC(n2c(=O)[nH]c3c(-c4ccc5ccccc5c4)ccnc32)CC1` [N-isopropyl-4-[7-(2-naphthyl)-2-oxo-1,2-dihydro-3H-imidazo[4,5-b]pyridin-3-yl]piperidine-1-carboxamide], in data set [2], the fold induction at 2 µM came to 1.42 and the fold induction at 20 µM worked out at 1.1.

For the compound `CC(C)NC(=O)N1CCC(n2cnc3c(-c4ccc5ccccc5c4)ccnc32)CC1` [N-isopropyl-4-[7-(2-naphthyl)-3H-imidazo[4,5-b]pyridin-3-yl]piperidine-1-carboxamide], in data set [2], the fold induction at 2 µM came to 1.2 and the fold induction at 20 µM amounted to 0.84.

Turning to `CC(=O)Nc1ccc(-c2nc3cc(-c4ccc5ccccc5c4)cnc3n2C2CCNCC2)cc1` [N-{4-[6-(2-naphthyl)-3-piperidin-4-yl-3H-imidazo[4,5-b]pyridin-2-yl]phenyl}acetamide], the “A = MAX FOLD Induction/DMSO CONTROL” value in data set [1] was determined as 1.460.

`COC(=O)N1CCC(n2cnc3c(-c4ccc5ccccc5c4)ccnc32)CC1` [methyl 4-[7-(2-naphthyl)-3H-imidazo[4,5-b]pyridin-3-yl]piperidine-1-carboxylate]: in data set [2], the fold induction at 2 µM came out at 1.08 and the fold induction at 20 µM was 1.02.

Values taken from patent US20090069319A1, “IMIDAZOPYRIDINE ANALOGS AND THEIR USE AS AGONISTS OF THE WNT-BETA-CATENIN CELLULAR MESSAGING SYSTEM” (Wyeth, priority 2007, published 2009).
